# Assay results from paper PMC7898037, “Improving mitochondria and ER stability helps eliminate upper motor neuron degeneration that occurs due to mSOD1 toxicity and TDP‐43 pathology” (Clinical and Translational Medicine, 2021).
# Legend:
# [1] = system: UMNs of prpTDP‐43^A315T‐UeGFP mice; experiment: EM quantification of mitochondria and ER in UMNs, prpTDP‐43^A315T‐UeGFP mice; format: in vivo
# Protocol: hSOD1^G93A‐UeGFP, prpTDP‐43^A315T‐UeGFP and WT‐UeGFP mice were weighed and the required NU‐9 dose per weight was calculated (20 or 100 mg/kg), which was administered once daily by oral gavage, starting at postnatal day (P)60 and continuing until P120. Animals from the untreated group received the vehicle (NMP and olive oil) only. For oral administration purposes, 20 ga × 38 mm plastic feeding tubes were used (Instech Laboratories, Inc). The gavage tip was inserted into the mouth directly over the tongue and into the pharynx. While observing the swallowing reflex, the tip was safely and smoothly slid into the esophagus. Once the administration was completed, the gavage tip was pulled straight out.
# Mice were perfused with EM grade 4% PFA. One hemisphere of the brain was sectioned at 50 µm thickness coronally on a vibratome (Leica VT1000S, Leica Inc., Nussloch, Germany). The sections were postfixed in 2% PFA and 0.5% glutaraldehyde for 1 h, they were cryoprotected with glycerol–dimethylsulfoxide (DMSO) mixture followed by freeze–thaw at least four times, and treated with 1% sodium borohydride. They were then treated with 0.3% H2O2–10% methanol in TBS (100 mM Tris–HCl and 150 mM NaCl, pH 7.6) and 5% normal goat serum–1% bovine serum albumin in TBS to block nonspecific binding of primary antibody. This mixture was incubated overnight with rat anti‐Ctip2 antibody (1:500, Thermo Fisher Scientific, Rockford, IL, USA). Biotinylated goat anti‐rat IgG (1:500, Vector Laboratories, Burlingame, CA, USA) was used as the secondary antibody, and diaminobenzidine (DAB) was applied as the chromogen (ABC Elite kit, Vector Laboratories, Burlingame, CA, USA). Sections were then postfixed in buffered 2% osmium tetroxide (OsO4) (Electron Microscopy Sciences, Hatfield, PA, USA), rinsed with distilled water, and stained in 1% uranyl acetate (Electron Microscopy Sciences, Hatfield, PA, USA), again rinsed with distilled water, dehydrated in ascending grades of ethanol with transition fluid propylene oxide (Electron Microscopy Sciences, Hatfield, PA, USA), embedded in the resin mixture with Embed 812 (Electron Microscopy Sciences, Hatfield, PA, USA), and cured in a 60°C oven for 3 days. The sections in which primary motor cortex was present and visible under bright‐field illumination on a dissecting scope were selected. Approximately, 5‐mm‐wide × 7‐mm‐long pieces of the motor cortex from these sections were dissected under the microscope mounted on a resin block and were sectioned on a Leica Ultracut UC6 ultramicrotome (Leica Inc., Nussloch, Germany). The motor cortex was further trimmed, and only layer 5 was kept intact for preparing ultrathin sections. UMNs were identified based on the presence of Ctip2 immunohistochemistry (DAB) in their nuclei (Figure S1). Seventy‐nanometer‐thin sections were collected on 200‐mesh copper–palladium grids. Grids were counterstained with 8% radioactive depleted uranyl acetate and 0.2% lead citrate. Grids were examined on FEI Tecnai Spirit G2 TEM (FEI company, Hillsboro, OR, USA), and digital images were captured on a FEI Eagle camera.
# EM images of Betz cells of normal control and patients, Ctip2‐positive (Ctip2^+) UMN of WT, and hSOD1^G93A‐UeGFP and prpTDP‐43^A315T‐UeGFP mice (Figure S1) were acquired from 70‐nm ultrathin sections of the motor cortex, and EM images were taken on FEI Tecnai Spirit G2 TEM using FEI Eagle camera. Mitochondria were quantified, as described previously. ^34 Mitochondria with intact outer and inner membrane and with intact cristae were considered healthy. Mitochondria with morphological defects, such as broken outer and/or inner membrane and cristae, were counted individually and were reported as percentage of defective mitochondria. ER that are disintegrated and that display profound expansion were considered unhealthy. Length of ER cisternae was measured using line tool of ImageJ software (NIH) upon calibration for pixels/micrometer using set scale function. […]
# [2] = system: SOD1^G93A‐expressing PC12 cell; settings: in vitro potency; read-out: EC50 (protein aggregation/toxicity); cited from earlier work
# [3] = prpTDP-43A315T-UeGFP mice, NU-9 100 mg/kg/day
# [4] = prpTDP-43A315T-UeGFP untreated minus NU-9 100 mg/kg/day, Tukey's multiple comparisons test
# [5] = prpTDP‐43^A315T‐UeGFP mice, 100 mg/kg/day oral gavage P60–P120
smiles,measurement,setting,value
C[C@H](Oc1cc(C(F)(F)F)cc(C(F)(F)F)c1)C1CC(=O)CC(=O)C1 [NU‐9],"Mean Diff., Fig. 6J, TDP-43 vs. TDP-43 -NU9","[1]; prpTDP43A315T-UeGFP untreated minus NU-9 100 mg/kg/day, Tukey's multiple comparisons test",-0.8333
same,Fig. 6G group mean (total number of mitochondria/UMN),[1]; prpTDP-43A315T-UeGFP (NU-9 100 mg/kg/day),31.85
same,"Mean, Fig. 6H (EM quantification in UMNs)",[1]; [3],86.77
same,"Mean, Fig. 6I (EM quantification in UMNs)",[1]; [3],31.16
same,"Mean, Fig. 6J (EM quantification in UMNs)",[1]; [3],1.37
same,"Mean Diff., Fig. 6H, TDP-43 vs. TDP-43 -NU9",[1]; [4],-64.89
same,"Mean Diff., Fig. 6I, TDP-43 vs. TDP-43 -NU9",[1]; [4],-18.7
same,average number of intact ER cisternae in UMNs,[1]; [5],36 ± 2 ER cisternae/UMN/section
same,average percentage of healthy mitochondria,[1]; [5],87% ± 1%
same,total mitochondria per UMN per section,[1]; [5],32 ± 3 mitochondria/UMN/section
same,EC50,[2],300 nM
